Measured values as given in patent US8273754B2, “Substituted 1H-pyrazolo[3,4-D]pyrimidine-6-amine compounds” (ArQule, Inc., priority 2008, dated 2012).
Where two headings read alike, the source gives them in different places.

System: cancer cells
Test: MTS cell growth inhibition assay (72 hours)
Assay type: cell-based
Procedure, shortened: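 Cells in DMEM with 1% FBS, seeded 18 h, then compound-treated 72 h at 37 °C. Viability by MTS/PMS for 4 h, formazan absorbance at 492 nm; IC50 taken as concentration giving 50% absorbance drop, activity banded by percent inhibition.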

[1] = Homo sapiens, DLD-1, 72 h, DLD-1 cells, read-out: DLD-1 MTS 72 hr at 10 μM
[2] = Homo sapiens, KATO III, 72 h, KATO III cells, read-out: KATO III MTS 72 hr at 10 μM
[3] = Homo sapiens, MDA-MB-231, 72 h, MDA-MB-231 cells, read-out: MDA-MB-231 MTS 72 hr at 10 μM
[4] = Homo sapiens, NCI-H1299, 72 h, NCI-H1299 cells, read-out: NCI-H1299 MTS 72 hr at 10 μM
[5] = PaCa-2, 72 h, PACA-2 cells, read-out: PACA-2 MTS 72 hr at 10 μM

Row | Compound | inhibition at 10 µM [1] | inhibition at 10 µM [2] | inhibition at 10 µM [3] | inhibition at 10 µM [4] | inhibition at 10 µM [5]
1 | Cc1cc(C)c(S(=O)(=O)N2CCC(Nc3nc(N)nc4[nH]ncc34)Cc3ccccc32)c(C)c1 (stereo not drawn) [Compound 173, N4-[1-(mesitylsulfonyl)-2,3,4,5-tetrahydro-1H-1-benzazepin-4-yl]-1H-pyrazolo[3,4-d]pyrimidine-4,6-diamine] | < 50% | < 50% | < 50% | < 50% | < 50%
2 | Nc1nc(NC2Cc3ccccc3N(S(=O)(=O)c3cccc(Cl)c3F)C2)c2cn[nH]c2n1 (stereo not drawn) [Compound 78, N4-(1-(3-chloro-2-fluorophenylsulfonyl)-1,2,3,4-tetrahydroquinolin-3-yl)-1H-pyrazolo[3,4-d]pyrimidine-4,6-diamine] | < 50% | < 50% | < 50% | < 50% | < 50%
3 | Nc1nc(NC2Cc3ccccc3N(S(=O)(=O)c3ccc(NC(=O)Nc4ccccc4)cc3)C2)c2cn[nH]c2n1 (stereo not drawn) [Compound 225, 1-(4-(3-(6-amino-1H-pyrazolo[3,4-d]pyrimidin-4-ylamino)-3,4-dihydroquinolin-1(2H)-ylsulfonyl)phenyl)-3-phenylurea] | > 79% | > 79% | > 79% | > 79% | > 79%
4 | Nc1nc(NC2Cc3ccccc3N(S(=O)(=O)c3cccc(NC(=O)Nc4cccc(F)c4)c3)C2)c2cn[nH]c2n1 (stereo not drawn) [Compound 219, 1-[3-({3-[(6-amino-1H-pyrazolo[3,4-d]pyrimidin-4-yl)amino]-3,4-dihydroquinolin-1(2H)-yl}sulfonyl)phenyl]-3-(3-fluorophenyl)urea] | > 79% | > 79% | > 79% | > 79% | > 79%
5 | COc1ccc(-c2cccc(S(=O)(=O)N3CC(Nc4nc(N)nc5[nH]ncc45)Cc4ccccc43)c2)cc1 (stereo not drawn) [Compound 63, N4-(1-(4′-methoxybiphenyl-3-ylsulfonyl)-1,2,3,4-tetrahydroquinolin-3-yl)-1H-pyrazolo[3,4-d]pyrimidine-4,6-diamine] | 50 to 79% | > 79% | < 50% | 50 to 79% | 50 to 79%
6 | Nc1nc(NC2CCN(S(=O)(=O)c3ccc(Cl)c(C(F)(F)F)c3)c3ccccc3C2)c2cn[nH]c2n1 (stereo not drawn) [Compound 170, N4-(1-{[4-chloro-3-(trifluoromethyl)phenyl]sulfonyl}-2,3,4,5-tetrahydro-1H-1-benzazepin-4-yl)-1H-pyrazolo[3,4-d]pyrimidine-4,6-diamine] | < 50% | > 79% | > 79% | < 50% | 50 to 79%
7 | Nc1nc(NC2Cc3ccccc3N(Cc3cccc(Oc4cc(Cl)cc(Cl)c4)c3)C2)c2cn[nH]c2n1 (stereo not drawn) [Compound 154, N4-{1-[3-(3,5-dichlorophenoxy)benzyl]-1,2,3,4-tetrahydroquinolin-3-yl}-1H-pyrazolo[3,4-d]pyrimidine-4,6-diamine] | > 79% | > 79% | 50 to 79% | 50 to 79% | 50 to 79%
8 | Nc1nc(NC2Cc3ccccc3N(C(=O)Nc3ccc(F)c(F)c3F)C2)c2cn[nH]c2n1 (stereo not drawn) [Compound 120, 3-(6-amino-1H-pyrazolo[3,4-d]pyrimidin-4-ylamino)-N-(2,3,4-trifluorophenyl)-3,4-dihydroquinoline-1(2H)-carboxamide] | > 79% | > 79% | 50 to 79% | < 50% | > 79%
9 | COc1ccc(CCNC(=O)N2CC(Nc3nc(N)nc4[nH]ncc34)Cc3ccccc32)cc1 (stereo not drawn) [Compound 116, 3-(6-amino-1H-pyrazolo[3,4-d]pyrimidin-4-ylamino)-N-(4-methoxyphenethyl)-3,4-dihydroquinoline-1(2H)-carboxamide] | < 50% | < 50% | < 50% | < 50% | < 50%
10 | Nc1nc(NC2Cc3ccccc3N(S(=O)(=O)c3ccsc3)C2)c2cn[nH]c2n1 (stereo not drawn) [Compound 67, N4-(1-(thiophen-3-ylsulfonyl)-1,2,3,4-tetrahydroquinolin-3-yl)-1H-pyrazolo[3,4-d]pyrimidine-4,6-diamine] | < 50% | < 50% | < 50% | < 50% | < 50%
11 | CS(=O)(=O)c1ccc(CN2CC(Nc3nc(N)nc4[nH]ncc34)Cc3ccccc32)cc1 (stereo not drawn) [Compound 139, N4-{1-[4-(methylsulfonyl)benzyl]-1,2,3,4-tetrahydroquinolin-3-yl}-1H-pyrazolo[3,4-d]pyrimidine-4,6-diamine] | > 79% | > 79% | < 50% | < 50% | 50 to 79%
12 | Nc1nc(NC2Cc3ccccc3N(S(=O)(=O)c3cccc(OC(F)(F)F)c3)C2)c2cn[nH]c2n1 (stereo not drawn) [Compound 70, N4-(1-(3-(trifluoromethoxy)phenylsulfonyl)-1,2,3,4-tetrahydroquinolin-3-yl)-1H-pyrazolo[3,4-d]pyrimidine-4,6-diamine] | < 50% | 50 to 79% | < 50% | < 50% | < 50%
13 | Nc1nc(NC2Cc3ccccc3N(Cc3ccc(OCc4ccccc4)cc3)C2)c2cn[nH]c2n1 (stereo not drawn) [Compound 155, N4-{1-[4-(benzyloxy)benzyl]-1,2,3,4-tetrahydroquinolin-3-yl}-1H-pyrazolo[3,4-d]pyrimidine-4,6-diamine] | > 79% | > 79% | > 79% | > 79% | > 79%
14 | N#Cc1cc(CN2CC(Nc3nc(N)nc4[nH]ncc34)Cc3ccccc32)ccc1F (stereo not drawn) [Compound 138, 5-({3-[(6-amino-1H-pyrazolo[3,4-d]pyrimidin-4-yl)amino]-3,4-dihydroquinolin-1(2H)-yl}methyl)-2-fluorobenzonitrile] | < 50% | < 50% | < 50% | < 50% | < 50%
15 | Cc1ccc(CNC(=O)N2CC(Nc3nc(N)nc4[nH]ncc34)Cc3ccccc32)cc1 (stereo not drawn) [Compound 110, 3-(6-amino-1H-pyrazolo[3,4-d]pyrimidin-4-ylamino)-N-(4-methylbenzyl)-3,4-dihydroquinoline-1(2H)-carboxamide] | < 50% | < 50% | < 50% | < 50% | < 50%
16 | Nc1nc(NC2Cc3ccccc3N(S(=O)(=O)c3cccc(NC(=O)Nc4ccc(Cl)c(C(F)(F)F)c4)c3)C2)c2cn[nH]c2n1 (stereo not drawn) [Compound 223, 1-(3-(3-(6-amino-1H-pyrazolo[3,4-d]pyrimidin-4-ylamino)-3,4-dihydroquinolin-1(2H)-ylsulfonyl)phenyl)-3-(4-chloro-3-(trifluromethyl)phenyl)urea] | > 79% | > 79% | > 79% | > 79% | > 79%
17 | Nc1nc(NC2Cc3ccccc3N(S(=O)(=O)c3ccc(-c4ccccc4)cc3)C2)c2cn[nH]c2n1 (stereo not drawn) [Compound 16, N4-(1-(biphenyl-4-ylsulfonyl)-1,2,3,4-tetrahydroquinolin-3-yl)-1H-pyrazolo[3,4-d]pyrimidine-4,6-diamine] | 50 to 79% | 50 to 79% | < 50% | < 50% | 50 to 79%
18 | Nc1nc(NC2CCN(S(=O)(=O)c3ccc(Cl)cc3)c3ccccc3C2)c2cn[nH]c2n1 (stereo not drawn) [Compound 171, N4-{1-[(4-chlorophenyl)sulfonyl]-2,3,4,5-tetrahydro-1H-1-benzazepin-4-yl}-1H-pyrazolo[3,4-d]pyrimidine-4,6-diamine] | < 50% | < 50% | < 50% | < 50% | < 50%
19 | COC(=O)c1ccccc1NC(=O)N1CC(Nc2nc(N)nc3[nH]ncc23)Cc2ccccc21 (stereo not drawn) [Compound 119, methyl 2-(3-(6-amino-1H-pyrazolo[3,4-d]pyrimidin-4-ylamino)-1,2,3,4-tetrahydroquinoline-1-carboxamido)benzoate] | > 79% | > 79% | > 79% | > 79% | > 79%
20 | CCc1ccc(S(=O)(=O)N2CC(Nc3nc(N)nc4[nH]ncc34)Cc3ccccc32)cc1 (stereo not drawn) [Compound 59, N4-(1-(4-ethylphenylsulfonyl)-1,2,3,4-tetrahydroquinolin-3-yl)-1H-pyrazolo[3,4-d]pyrimidine-4,6-diamine] | < 50% | < 50% | < 50% | < 50% | < 50%
21 | Cc1ccc(Oc2ccccc2CN2CC(Nc3nc(N)nc4[nH]ncc34)Cc3ccccc32)cc1 (stereo not drawn) [Compound 158, N4-{1-[2-(4-methylphenoxy)benzyl]-1,2,3,4-tetrahydroquinolin-3-yl}-1H-pyrazolo[3,4-d]pyrimidine-4,6-diamine] | > 79% | > 79% | 50 to 79% | < 50% | > 79%
